Tested on: epidermal gene expression (GeneTitan U219 probes)
Assay: Genomic evaluation of LCM-derived epidermal samples before vs. after surfactant (SLS) challenge, leg controlled application test
Type: in vivo, human
Conditions: for Significant Beyond Chance / Number of Probes (significantly different): summer, after 5 day 1% SLS treatment vs. baseline; for Number of Probes (significantly different): p<0.05, approximately 2465 probes expected by chance
Method: 25 ng of purified RNA is converted to biotin-labeled cRNA copies using the Affymetrix HT 3′ IVT Express kit (Cat. #901253) and protocol provided as executed on a Beckman Biomek® FX^p Laboratory Automation Workstation (Beckman Cat. #A31842), or equivalent. In brief, 500 ng of total RNA is reverse-transcribed into cDNA copies using oligo-dT primers and reverse transcriptase followed by second strand synthesis using DNA polymerase I. Following purification, the cDNA library is used as a template for generating biotin-labeled cRNA copies using T7 RNA polymerase and biotinylated dUTP. Biotinylated cRNA is fragmented by limited alkaline hydrolysis and then hybridized overnight to Affymetrix GeneTitan® U219 array plates using the Affymetrix GeneTitan® instrument and protocol provided. Following processing, chip images are converted to numeric data using the PLIER algorithm as executed in the Affymetrix GeneChip Expression Console.
A clinical study was conducted to conduct a genomic evaluation of subjects with inherently dry skin versus subjects with inherently normal moisturized skin in the winter season (phase 1) and summer season (phase 2. The clinical study design for each phase was a leg controlled application test (LCAT) protocol. The phase 2 portion of the test also included a determination of genomic differences between subjects that are treated with a drying agent (“surfactant challenged”).
Phase 2 clinical design: human subjects from phase 1 were recalled during the summer season (i.e., June-August) and maintained in their respective cohort groups. A cohort of 29 subjects was recalled for the inherently dry skin group, while a cohort of 12 subjects was recalled for the inherently normal moisturized skin group. All subjects were pre-conditioned with Olay® soap bar for 7 days (days −7 to −1) followed by a 2 day regression. Subjects were instructed to abstain from washing their legs with any products and from using any leave-on products on their legs during the pretreatment period. Dry Skin Grade measurements, full thickness biopsies, and other skin health measurements (e.g., TEWL) were taken on day 1. Subjects with a dry skin score of greater than 4.0 were excluded from biopsies. The full thickness biopsies were later separated into epidermal and dermal sections via LCM, and the epidermal section was used for genomic analysis.
On days 3-7 (5 consecutive days) subjects who have a Dryness Grade less than 3.0 on one or both legs continue on the study, all other subjects were excused from the study. The clinical staff conducted visual grading at a site adjacent to the biopsy site, followed by a surfactant challenge (i.e., treating the site with 1% sodium lauryl sulfate (“SLS”) solution and occluding the site with a Hill Top Chamber® brand occlusive patch test system for 30 minutes). Each day the dryness was visually graded prior to the SLS treatment. On day 8 (24 hrs. following Day 7), bio-instruments measures were taken, but biomarkers and biopsies were only taken if the surfactant challenged site has a Dryness Grade below 4.0.
Results: 237 LCM-derived epidermal samples were processed on GeneTitan® U219 chips as described above. Of these, 11 were statistical outliers that were eliminated from the data set. For purposes of statistical treatment, the left and right leg samples from each subject, at each phase of the study, were considered replicates. An ANOVA model was used to determine group differences.

[1] = P2 D5 Dry vs. P2 BL Dry: inherently dry skin
[2] = P2 D5 Healthy vs. P2 BL Healthy: inherently normal moisturized skin

CCCCCCCCCCCCOS(=O)(=O)[O-].[Na+] [SLS, sodium lauryl sulfate]
Significant Beyond Chance [1]: Yes
Number of Probes (significantly different) [1]: 10696
Significant Beyond Chance [2]: Yes
Number of Probes (significantly different) [2]: 6110
Difference in probe expression, paired (within-group) comparison before vs. after SLS treatment (within dry skin or normal/healthy skin groups, summer phase): significant differences

Source: patent US11035851B2, “Method of identifying cosmetic agents for moisturizing skin” (The Procter & Gamble Company, priority 2016, dated 2021)
